According to patent publication US12070458B2, “Therapeutic agent composition and method of use, for treatment of mild congnitive impairment, depression, and psychological disorders” (priority 2018, dated 2024):
Residues, ends and D or L forms follow the SMILES beside them.

How the values were obtained:
[1] = system: cerebellar microexplants (P4); experiment: Glutamate induced neuronal death in cerebellar microexplants (P4); format: cell-based, Wistar rats; conditions: for neuron number compared to the normal control group: a further lower dose; for recovery from glutamate-induced neurotoxicity: lower doses 10-100 nM, simultaneously with glutamate
Protocol: Cerebellar Cell Culture Preparing and Coating of Cover Slips
Ten coverslips were placed into a large petri dish and washed in 70% alcohol for 5 minutes, then washed with Millipore H2O. The coverslips were air dried, then coated with Poly-D-Lysine (1 mg/ml stock solution in PBS, 90-100 μl) and incubated for 2 hours at 34° C.
Postnatal day 4 Wistar rats were used for the study. Rats were placed in ice for 1 minute, the heads were decapitated and the cerebellum removed on ice. Cerebellum tissue was placed in 1 ml of 0.65% glucose supplemented PBS (10 μl 65% stock D (+)glucose/1 ml PBS) in a large petri dish, chopped up into smaller sections and triturate with a 1 ml insulin syringe via a 23 G (0.4 mm) needle, and then squirted back into the glucose solution on the large petri dish. The tissue was sieved through (125 μm pore size gaze) and centrifuged (2 minutes at 60 g) two times for a medium exchange into serum-free BSA-supplemented START V medium (Biochrom). The second centrifugation step was done with 1 ml of START V medium. The microexplants were reconstituted into 500 μl of START V medium and put on ice.
Cultivation and Fixation of Cerebellar Cells
Two hours after PDL-coating, the slides were washed with Millipore H2O and air dried. Each slide was placed into a small 35 mm petri dish and 40 μl of START V/cell suspension added. The tissue was incubated for 2 hours at 34° C. (settlement period). START V-medium (1 ml) was then added to the petri dish and cultivated at 34° C./5% CO2/100% humidity for 48 hours. Cells were rinsed in PBS and then fixed for 2-3 minutes in increasing concentrations of paraformaldehyde (500 μl of 0.4% PFA was applied; then 1.2% PFA; then 3% PFA and finally 4% PFA—all fixation solutions contain 0.2% glutardialdehyde). Finally, the microexplants were rinsed in PBS.
(§1) 10 μl of toxin (L-glutamate-100 mM in Millipore water) was applied simultaneously with cPG (from bachem, 10 mM stock prepared in PBS and diluted to final concentrations between 1-100 nM) for Study 1. A delay in administration of cPG at 6 hours after glutamate treatment was performed for Study 2.
as §1, with “cyclic(tri(prolylglycyl)) (which was obtained from NeuroBiomed, San Jose, California),” for “cPG (from bachem,”, “cyclic(tri(prolylglycyl))” for “cPG”
as §1, with “cyclic Glycyl-2-Methyl Proline (obtained NeuroBiomed, San Jose California),” for “cPG (from bachem,”

[2] = system: BrdU positive cells in sub ventricular zone and dentate gyrus; experiment: Neurogenesis by BrdU co-administration (sub ventricular zone, dentate gyrus); format: in vivo, Wistar rats; conditions: 10 mg/kg i.p. in 0.1% RSA twice daily for 7 days, compared to sham injected
Protocol: Male Wistar rats weighing about 250-270 g (not newborn) were used. All animal experiments were conducted in agreement with national and international guidelines. Care was taken to minimize suffering for the animals. Animals were allowed to acclimatize for 1 week before start of the studies. Animals were housed under standardized conditions with normal tight-dark periods and in groups of five animals per cage. Animals had access to food and water ad libitum during the studies.
Three neurogenesis modulating agents, cPG, c(PG)3 and cGMeP were separately administered intraperitoneally to Male Wistar rats (N=10) at 10 mg/kg in Rat Serum Albumin (RSA). The negative control (n=12), the vehicle group was injected with saline (in 0.1% RSA). Bromodeoxyuridine (Brd1J; 50 mg/kg) was co-administrated together with the compounds. The intraperitoneally injections were given with a 12 hour interval for 7 days. Animals were perfused on day 8. The rats were kept at 12 hours light/dark regime. In perfusion, animals were perfused transcranially with 50 ml of ice cold phosphate buffered saline (PBS) and then 100 ml of 4% paraformaldehyde in PBS. Brains were fixed after removal in 4% paraformaldehyde in PBS for 24 hours at 4° C. at least 3 days before sectioning. The procedures of transcranial infusion consist the following steps: […]

[3] = 1-100 nM given 6 hours after the glutamate treatment, compared to vehicle
[4] = administered simultaneously with glutamate, 1-100 nM, glutamate alone 85% loss of neurons

SMILES | improvement, recovery from glutamate induced neurotoxicity [1, 3] | neuron number compared to the normal control group [1] | reduction of glutamate induced neuronal death [1, 4] | recovery from glutamate-induced neurotoxicity [1] | number of newborn cells (BrdU positive) in sub ventricular zone and dentate gyrus [2] | recovery from glutamate induced neurotoxicity [1, 3] | glutamate induced neuronal death [1, 4]
O=C1NCC(=O)N2CCC[C@H]2C(=O)NCC(=O)N2CCC[C@H]2C(=O)NCC(=O)N2CCCC12 (stereo partly drawn) [c(PG)3, cyclic (glycyl-L-prolylglycyl-L-prolylglycyl-L-prolyl)] (HELM PEPTIDE1{G.P.G.P.G.[O=C(C1CCCN1[*:1])[*:2]]}$PEPTIDE1,PEPTIDE1,1:R1-6:R2$$$V2.0) | approximately 43% | significant increase | 57% | significant recovery | significant increase | – | –
O=C1NCC(=O)N2CCC[C@@H]12 [cPG, cyclic Prolyl Glycine] | – | significant increase | – | significant recovery | significant increase | significantly recovery | significantly reduced
